According to ChEMBL document CHEMBL1817587, “DNA site-specific N3-adenine methylation targeted to estrogen receptor-positive cells” (Bioorg Med Chem, 2011):
Active and inactive are the calls of the source. The rule behind the calls is not given here.

Assays:
MCF7 [1] = assay: Cytotoxicity against human MCF7 cells at 250 uM after 16 hrs by MTT assay pretreated with 250 uM fulvestrant; type: functional, cell-based
MCF7 [2] = assay: Ratio of methylmethane sufonate EC50 to compound EC50 for human MCF7 cells after 16 hrs by MTT assay; type: functional
Nucleic Acid [3] = assay: Induction of DNA methylation at calf thymus DNA assessed as 7-MeG adduct level per mol of DNA at 50 uM after 24 hrs by reverse phase HPLC; type: nucleic-acid assay; conditions: Bos taurus
MCF7 [4] = assay: Ratio of EC50 for human MCF7 cells pretreated with 100 uM netropsin to compound EC50 for human MCF7 cells; type: functional
Nucleic Acid [5] = assay: Induction of DNA methylation at calf thymus DNA assessed as 7-MeG level at 500 uM after 24 hrs by reverse phase HPLC relative to methylmethane sufonate; type: nucleic-acid assay; conditions: Bos taurus
MCF7 [6] = assay: Cytotoxicity against human MCF7 cells after 16 hrs by MTT assay pretreated with 100 uM netropsin; type: functional, cell-based
MCF7 [7] = assay: Ratio of Me-lex EC50 to compound EC50 for human MCF7 cells after 16 hrs by MTT assay; type: functional
Nucleic Acid [8] = assay: Induction of DNA methylation at calf thymus DNA assessed as 3-MeA adduct level per mol of DNA after 24 hrs by reverse phase HPLC; type: nucleic-acid assay; conditions: Bos taurus
MCF7 [9] = assay: Cytotoxicity against human MCF7 cells after 16 hrs by MTT assay; type: functional, cell-based; conditions: MCF7, 16 h
Nucleic Acid [10] = assay: Induction of DNA methylation at calf thymus DNA assessed as 3-MeA adduct level per mol of DNA at 50 uM after 24 hrs by reverse phase HPLC in presence of 100 uM netropsin; type: nucleic-acid assay; conditions: Bos taurus
Nucleic Acid [11] = assay: Induction of DNA methylation at calf thymus DNA assessed as 7-MeG adduct level per mol of DNA after 24 hrs by reverse phase HPLC; type: nucleic-acid assay; conditions: Bos taurus
Nucleic Acid [12] = assay: Induction of DNA methylation at calf thymus DNA assessed as total adduct level at 500 uM after 24 hrs by reverse phase HPLC relative to methylmethane sufonate; type: nucleic-acid assay; conditions: Bos taurus
Nucleic Acid [13] = assay: Induction of DNA methylation at calf thymus DNA assessed as 3-MeA level at 500 uM after 24 hrs by reverse phase HPLC relative to methylmethane sufonate; type: nucleic-acid assay; conditions: Bos taurus
Nucleic Acid [14] = assay: Induction of DNA methylation at calf thymus DNA assessed as 7-MeG adduct level per mol of DNA at 50 uM after 24 hrs by reverse phase HPLC in presence of 100 uM netropsin; type: nucleic-acid assay; conditions: Bos taurus
Nucleic Acid [15] = assay: Induction of DNA methylation at calf thymus DNA assessed as 3-MeA adduct level per mol of DNA at 50 uM after 24 hrs by reverse phase HPLC; type: nucleic-acid assay; conditions: Bos taurus
Nucleic Acid [16] = assay: Induction of DNA methylation at calf thymus DNA assessed as 7-MeG adduct level per mol of DNA at 100 uM after 24 hrs by reverse phase HPLC in presence of 100 uM netropsin; type: nucleic-acid assay; conditions: Bos taurus
Nucleic Acid [17] = assay: Induction of DNA methylation at calf thymus DNA assessed as 3-MeA adduct level per mol of DNA at 100 uM after 24 hrs by reverse phase HPLC in presence of 100 uM netropsin; type: nucleic-acid assay; conditions: Bos taurus
Nucleic Acid [18] = assay: Induction of DNA methylation at calf thymus DNA assessed as 7-MeG adduct level per mol of DNA at 100 uM after 24 hrs by reverse phase HPLC; type: nucleic-acid assay; conditions: Bos taurus
MCF7 [19] = assay: Cytotoxicity against human MCF7 cells at 500 uM after 16 hrs by MTT assay; type: functional, cell-based
[20] = molecular target: T1, Estrogen receptor (Homo sapiens) (UniProt P03372); assay: (§1) Binding affinity to estrogen receptor-alpha after 2 hrs by TR-FRET assay
T1 sequence (whole entry): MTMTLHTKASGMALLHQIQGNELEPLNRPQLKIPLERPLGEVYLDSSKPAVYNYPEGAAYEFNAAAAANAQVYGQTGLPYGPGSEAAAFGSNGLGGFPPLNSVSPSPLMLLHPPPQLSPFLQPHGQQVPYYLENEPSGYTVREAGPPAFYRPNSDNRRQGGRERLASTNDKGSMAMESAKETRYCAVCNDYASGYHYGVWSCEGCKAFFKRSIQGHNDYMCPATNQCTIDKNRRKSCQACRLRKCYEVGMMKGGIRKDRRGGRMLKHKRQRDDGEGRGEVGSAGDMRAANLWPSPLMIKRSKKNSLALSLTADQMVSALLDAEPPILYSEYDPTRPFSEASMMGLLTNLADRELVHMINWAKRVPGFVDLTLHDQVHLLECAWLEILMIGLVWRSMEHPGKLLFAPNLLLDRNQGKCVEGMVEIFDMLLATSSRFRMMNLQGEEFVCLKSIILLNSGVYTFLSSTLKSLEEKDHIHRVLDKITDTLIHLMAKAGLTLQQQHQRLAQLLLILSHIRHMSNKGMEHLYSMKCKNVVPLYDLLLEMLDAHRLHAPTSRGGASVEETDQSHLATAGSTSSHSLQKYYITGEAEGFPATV

Estrogen receptor = molecular target: T2, Estrogen receptor (Homo sapiens, UniProt P03372); assay: as §1
T2 sequence (P03372 whole entry): T1 sequence (whole entry)

Nucleic Acid [21] = assay: Induction of DNA methylation at calf thymus DNA assessed as 3-MeA adduct level per mol of DNA at 5000 uM after 24 hrs by reverse phase HPLC; type: nucleic-acid assay; conditions: Bos taurus
Nucleic Acid [22] = assay: Induction of DNA methylation at calf thymus DNA assessed as 3-MeA adduct level per mol of DNA at 5000 uM after 24 hrs by reverse phase HPLC in presence of 100 uM netropsin; type: nucleic-acid assay; conditions: Bos taurus

`COS(=O)(=O)CCC(=O)Nc1cc(C(=O)Nc2cc(C(=O)NCCCC(=O)NCCCCCC[C@@H]3Cc4cc(O)ccc4[C@H]4CC[C@]5(C)[C@@H](O)CC[C@H]5[C@H]34)n(C)c2)n(C)c1` was tested, and the Activity (MCF7 [1]) was “inactive”, the “Ratio EC50” value (MCF7 [2]) was 20 and the Activity (Nucleic Acid [3]) was 280 µmol. The “Ratio EC50” value (MCF7 [4]) was 3, the fold change (FC) (Nucleic Acid [5]) was 1.5 and the EC50 (MCF7 [6]) was 479 µM. For the same compound, the “Ratio EC50” value (MCF7 [7]) was 1.5, the Activity (Nucleic Acid [8]) was 86% and the EC50 (MCF7 [9]) was 135 µM. The Activity (Nucleic Acid [10]) was 167 µmol, the Activity (Nucleic Acid [11]) was 14% and the fold change (FC) (Nucleic Acid [12]) was 11. The fold change (FC) (Nucleic Acid [13]) was 98, the Activity (Nucleic Acid [14]) was 279 µmol and the Activity (Nucleic Acid [15]) was 1760 µmol.
For `CCCNC(=O)CCCNC(=O)c1cc(NC(=O)c2cc(NC(=O)CCS(=O)(=O)OC)cn2C)cn1C`, the Activity (Nucleic Acid [16]) was 614 µmol, the Activity (Nucleic Acid [17]) was 657 µmol and the fold change (FC) (Nucleic Acid [5]) was 1.4. It also gave an Activity (Nucleic Acid [18]) of 496 µmol, an Activity (Nucleic Acid [8]) of 96% and an EC50 (MCF7 [9]) of 214 µM. It also gave an Activity (Nucleic Acid [11]) of 90%, a fold change (FC) (Nucleic Acid [12]) of 37 and a fold change (FC) (Nucleic Acid [13]) of 391.
`Cn1cc(NC(=O)c2cc(NC(=O)CCS(C)(=O)=O)cn2C)cc1C(=O)NCCCC(=O)NCCCCCC[C@@H]1Cc2cc(O)ccc2[C@H]2CC[C@]3(C)[C@@H](O)CC[C@H]3[C@H]12` was tested, and the Activity (MCF7 [19]) was “inactive”, the RBA [20] was 51% and the IC50 (Estrogen receptor) was 0.00111 µM.
With `COS(C)(=O)=O` [METHANESULFONIC ACID METHYL ESTER] the Activity (Nucleic Acid [21]) was 1800 µmol, the Activity (Nucleic Acid [22]) was 1240 µmol and the Activity (Nucleic Acid [8]) was 9%. For the same compound, the EC50 (MCF7 [9]) was 2750 µM.
